In patent US20090258877A1, “TRIAZOLOTRIAZINES AND TRIAZOLOPYRAZINES AND THEIR USE” (BAYER HEALTHCARE AG, priority 2007, published 2009) one finds IC50 data, which are given here for four compounds.

In this assay the target is T1, GSK3β (Homo sapiens, UniProt P49841).
T1 construct: purchased Upstate 14-306
Nature of the assay: GSK3β biochemical in vitro assay (coupled pyruvate kinase/lactate dehydrogenase, NADH fluorescence). Particulars: 5 nM GSK3β, 50 μM ATP, 40 μM GSM substrate, 30° C., 2 hours. On the procedure:
The inhibitory activity of active substances is determined in a biochemical assay. The ingredients required for this purpose are mixed in a black 384-well microtitre plate with transparent base (from Greiner, catalogue number 781092). The requirements in this connection for each well of the 384-well microtitre plate are 5 nM GSK3β (from Upstate, catalogue number 14-306), 40 μM GSK3β substrate GSM (sequence H-RRRPASVPPSPSLSRHS-(pS)-HQRR, from Upstate, catalogue number 2-533), 30 μM nicotinamide adenine dinucleotide NADH (Roche Diagnostics, catalogue number 10107735), 50 μM adenosine triphosphate ATP (from Sigma, catalogue number A7966), 2 mM phosphoenolpyruvate (from Roche, catalogue number 128112), and also about 1 U/ml of pyruvate kinase and about 1 U/ml of lactate dehydrogenase, which are present together in a stock formulation (from Roche, catalogue number 10737291001, suspension with about 450 U/ml of pyruvate kinase activity, about 450 U/ml of lactate dehydrogenase activity in […] ammonium sulphate solution pH 6), where 1 unit pyruvate kinase converts, at pH 7.6 and 37° C., 1 μmol of phosphoenolpyruvate into pyruvate per minute, and where 1 unit of lactate dehydrogenase reduces, at pH 7.5 and 37° C., 1 μmol of pyruvate to lactate per minute. The required reaction buffer in which the biochemical reaction takes place consists of 50 mM Trizma hydrochloride Tris-HCl pH: 7.5 (from Sigma, catalogue number T3253), 5 mM magnesium chloride MgCl2 (from Sigma, catalogue number M8266), 0.2 mM DL-dithiothreitol DTT (from Sigma, catalogue number D9779), 2 mM ethylenediaminetetraacetic acid EDTA (from Sigma, catalogue number E6758), 0.01% Triton X-100 (from Sigma, catalogue number T8787) and 0.05% bovine serum albumin BSA (from Sigma, catalogue number B4287).
Active substances are dissolved in dimethyl sulphoxide DMSO (from Sigma, catalogue number D8418) in a concentration of 10 mM. Active substances are added in serial concentrations of 10 μM, 1 μM, 0.1 μM, 0.01 μM, 0.001 μM, 0.0001 μM, 0.00001 μM, 0.000001 μM to the mixtures of the biochemical reaction. As control, dimethyl sulphoxide is added instead of substance in a final concentration of 0.1%.
The reaction is incubated at 30° C. for 2 hours and then the resulting fluorescence is measured in a Tecan Safire-XFLUOR4 instrument, version V4.50 (serial number 12901300283) with the specifications: measurement mode—fluorescence measured from below, excitation wavelength 340 nm, emission wavelength 465 nm, slit width excitation 5 nm, slit width emission 5 nm, gain mode 120, delay 0 μs, number of light flashes per measurement 3, and an integration time of 40 μs.
The activity of the active substances is calculated in relation to these 0% and 100%.

T1 sequence (P49841 whole entry): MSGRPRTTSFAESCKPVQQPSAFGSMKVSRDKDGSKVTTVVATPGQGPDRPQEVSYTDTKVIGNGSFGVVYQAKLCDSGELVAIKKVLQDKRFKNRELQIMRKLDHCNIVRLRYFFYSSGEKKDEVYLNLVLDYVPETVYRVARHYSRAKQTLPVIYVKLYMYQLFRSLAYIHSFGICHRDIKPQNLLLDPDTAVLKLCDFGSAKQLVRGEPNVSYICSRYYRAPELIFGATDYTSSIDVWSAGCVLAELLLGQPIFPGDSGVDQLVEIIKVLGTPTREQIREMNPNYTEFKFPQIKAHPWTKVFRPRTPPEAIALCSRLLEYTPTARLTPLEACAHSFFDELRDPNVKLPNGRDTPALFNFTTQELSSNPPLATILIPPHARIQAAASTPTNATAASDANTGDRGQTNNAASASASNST

Consider `Nc1nc(NCCNc2nc(-c3ccc(Cl)cc3Cl)cn3ncnc23)ccc1C(=O)C(F)(F)F` [Example 6, 1-{2-Amino-6-[(2-{[6-(2,4-dichlorophenyl)[1,2,4]triazolo[1,5-a]pyrazin-8-yl]amino}ethyl)amino]-pyridin-3-yl}-2,2,2-trifluoroethanone], for which the IC50 (commonly the concentration at which inhibition is half-maximal) worked out at 13 nM.

For `Nc1nc(NCCNc2nc(-c3ccc(Cl)cc3Cl)nn3cnnc23)ccc1C(=O)C(F)(F)F` [Example 8, 1-{2-Amino-6-[(2-{[6-(2,4-dichlorophenyl)[1,2,4]triazolo[3,4-f][1,2,4]triazin-8-yl]amino}ethyl)-amino]pyridin-3-yl}-2,2,2-trifluoroethanone], half-maximal inhibition (IC50) required 9.1 nM.

Regarding `CCC(=O)c1ccc(NC2CCCN(c3nc(-c4ccc(Cl)cc4Cl)nn4cnnc34)C2)nc1N` (stereo not shown) [Example 11, 1-[2-Amino-6-({1-[6-(2,4-dichlorophenyl) [1,2,4]triazolo[3,4-f][1,2,4]triazin-8-yl]piperidin-3-yl}-amino)pyridin-3-yl]propan-1-one], the IC50 stood at 4.4 nM. Against the preceding compound, the IC50 is about 2.1-fold lower.

`N#Cc1sc(NCCNc2nc(-c3ccc(Cl)cc3Cl)cn3ncnc23)nc1N` [Example 15, 4-Amino-2-[(2-{[6-(2,4-dichlorophenyl)[1,2,4]triazolo[1,5-a]pyrazin-8-yl]amino}ethyl)amino]-1,3-thiazole-5-carbonitrile] came in with an IC50 of 3.2 nM.
